Test results as given in US10954196B2, “Method for producing 5-hydroxy-1H-imidazole-4 carboxamide 3/4 hydrate” (FUJIFILM Corporation, priority 2017, dated 2021).

How the values were obtained:
[1] = Test Example 1: test of coloring stability during storage (washed product); format: physicochemical; details: visually observed after storage for 5 days, air atmosphere, light shielding, 60° C., 75% relative humidity, hydrate
Protocol: About 1 g of the test substance was placed in a storage bag formed by stacking two 0.04 mm-thick polyethylene bags, sealed in each polyethylene bag, and stored for 5 days in an air atmosphere under the conditions of light shielding, 60° C., and 75% relative humidity. The tone of the test substance after the test was visually observed. In addition, a change in the color of the crystal before and after the test was measured with a spectrophotometric color difference meter to determine the color difference. Colorimeter: spectrophotometric color difference meter SE2000 manufactured by Nippon Denshoku Industries Co., Ltd. Measurement method: reflection method

[2] = Test Example 3: coloring stability during storage (unwashed product); format: physicochemical; details: light shielding, 60° C., 75% relative humidity, hydrate; for Color difference (ΔE): before vs after storage for 5 days, spectrophotometric color difference meter, reflection method; for Tone: visually observed after storage for 5 days, air atmosphere
[3] = as disclosed in Test Example 1 and Test Example 2 of WO2009/035168A; cited from earlier work

Structure (SMILES) | Tone [1] | Color difference (ΔE) [2] | Tone [2] | Coloring stability (color change) [3]
NC(=O)c1nc[nH]c1O.O [Example 10, 5-hydroxy-1H-imidazole-4-carboxamide•¾ hydrate] | White | 2.2 | White | 
NC(=O)c1nc[nH]c1O.O [Example 3, 5-hydroxy-1H-imidazole-4-carboxamide•¾ hydrate] | White | 1.1 | White | 
NC(=O)c1nc[nH]c1O.O [Example 4, 5-hydroxy-1H-imidazole-4-carboxamide•¾ hydrate] | White | 2.3 | White | 
NC(=O)c1nc[nH]c1O.O [Comparative Example 1, 5-hydroxy-1H-imidazole-4-carboxamide•¾ hydrate, reference compound] |  | 62.4 | Black blue | 
NC(=O)c1nc[nH]c1O.O [Example 12, 5-hydroxy-1H-imidazole-4-carboxamide•¾ hydrate] | White |  | White | 
NC(=O)c1nc[nH]c1O.O [Example 7, 5-hydroxy-1H-imidazole-4-carboxamide•¾ hydrate] | White | 1.0 | White | 
Cl.NC(=O)c1nc[nH]c1O [hydrochloride of the compound A] |  |  |  | stable
NC(=O)c1nc[nH]c1O [compound A, 5-Hydroxy-1H-imidazole-4-carboxamide] |  |  |  | changed color to indigo blue or blue
NC(=O)c1nc[nH]c1O.O [Example 11, 5-hydroxy-1H-imidazole-4-carboxamide•¾ hydrate] | White | 1.6 | White | 
NC(=O)c1nc[nH]c1O.O [Example 5, 5-hydroxy-1H-imidazole-4-carboxamide•¾ hydrate] | White | 4.1 | White | 
NC(=O)c1nc[nH]c1O.O [Example 9, 5-hydroxy-1H-imidazole-4-carboxamide•¾ hydrate] | White | 0.9 | White | 
NC(=O)c1nc[nH]c1O.O [Comparative Example 2, 5-hydroxy-1H-imidazole-4-carboxamide•¾ hydrate, reference compound] |  | 51.4 | Black blue | 
NC(=O)c1nc[nH]c1O.O [Example 2, 5-hydroxy-1H-imidazole-4-carboxamide•¾ hydrate] | White | 3.1 | White | 
NC(=O)c1nc[nH]c1O.O [Example 8, 5-hydroxy-1H-imidazole-4-carboxamide•¾ hydrate] | White | 1.4 | White | 
